Key:
[1] = tested on: HDAC; conditions: statement from cited literature; cited from earlier work
[2] = tested on: TGF-β1 mRNA; assay: PCR of TGF-β1 mRNA in SLE and control T cells / PBMCs; format: cell-based, human; conditions: SLE PBMCs exposed to TSA and SAHA (summary statement)
Method: (§1) Gene expression of TGF-β1 was tested to determine if the gene expression is suppressed by deacetylation of histones in SLE. In this determination, SLE PBMCs or isolated T cells were treated with the histone deacetylase inhibitors (HDIs), TSA or SAHA, for 18hr. […] Subsequently, semi-quantitative PCR was performed to determine the amounts of […] transcripts in SLE and control T cells treated with vehicle or TSA (1000 ng/ml). […] There is no change in GAPDH transcript in normal and SLE T cells after treatment of HDIs. Increased TGF-β1 transcript was associated with a subsequent increase in TGF-β1 protein secretion by SLE PBMCs. When compared to vehicle treated PBMCs, total TGF-β1 protein in culture supernatants from SLE PBMCs increased by approximately 30%. In contrast, there was no increase in total TGF-β1 secretion in TSA treated cells in normal healthy controls. Similar results may be obtained by SAHA.

[3] = tested on: TGF-β1 protein; assay: TGF-β1 protein secretion by PBMCs; format: cell-based, human; conditions: SLE PBMCs exposed to TSA and SAHA (summary statement)
Method: as §1

[4] = tested on: acetylated H3 and H4 histones; assay: Western immunoblot of acetylated H3 and H4 histones in SLE PBMCs; format: cell-based, human; conditions: 1000 ng/ml TSA or 20 μM SAHA, 18 hr
Method: The effect of TSA and SAHA was examined to determine if HDIs induce accumulation of acetylated histones in SLE PBMCs on the level of histone acetylation in SLE PBMCs. Following culture of PBMCs in the presence of vehicle, 1000 ng/ml TSA or 20 μM SAHA for 18 hr, histones were isolated.

[5] = tested on: IFN-γ mRNA; assay: IFN-γ mRNA in MRL/lpr splenocytes; format: cell-based, mouse
Method: In determining whether TSA can down-regulate IFN-γ mRNA, splenocytes from older, 24-wk MRL/lpr mice were treated with 0 to 500 ng/ml of TSA for 18 hr. […] Compared to splenocytes from 10-wk old mice that had low IFN-γ mRNA (FIG. 8B, lane 1), older mice had higher constitutive levels of IFN-γ transcripts normalized to the housekeeping gene, GAPDH (FIG. 8A, lane 1). […] Maximal inhibition of IFN-γ transcript consistently occurred at 500 ng/ml of TSA.
To establish whether TSA or SAHA down-regulates Con A-induced IFN-γ mRNA expression, splenocytes from 10-wk old mice were stimulated with Con A (10 μg/ml) for 18 hr. From previous kinetic studies, IFN-γ mRNA is maximally expressed when T cells are activated for 18 hr. […] Thus, both TSA and SAHA inhibit IFN-γ. mRNA up-regulation in response to mitogenic stimulation.

[6] = tested on: IFN-γ protein; assay: IFN-γ protein secretion by MRL/lpr splenocytes; format: cell-based, mouse; conditions: Con A-stimulated splenocytes from younger MRL/lpr mice, 72 hr; p=0.004
Excerpt: The marked inhibition of IFN-γ transcript by these inhibitors prompted us to quantify IFN-γ protein secretion in splenocyte culture supernatants. Over 72 hr, Con A, but not LPS, stimulated splenocytes from younger MRL/lpr mice to secrete a mean (±SEM) 1,563.2±88.3 pg/ml of IFN-γ (FIG. 8D). […] Thus, inhibition of IFN-γ transcription by TSA and SAHA blocks secretion of IFN-γ protein by splenocytes.

[7] = tested on: IL-12 p35 and p40 transcripts; assay: IL-12 p35 and p40 transcripts in MRL/lpr splenocytes; format: cell-based, mouse; conditions: splenocytes from 10-wk old MRL/lpr mice preincubated 18 hr, stimulated 6 or 18 hr
Method: In this study, the question of whether TSA down-regulates transcription of both IL-12 p35 and p40 subunit mRNA was investigated. […] Splenocytes were stimulated with LPS and IFN-γ for 6 or 18 hr. […] When splenocytes were preincubated with TSA or SAHA for 18 hr and then stimulated with LPS and IFN-γ IL-12 p35 and p40 transcripts were undetectable (FIGS. 9B–D).

[8] = tested on: IL-12 p40 protein; assay: IL-12 p40 protein secretion by MRL/lpr splenocytes; format: cell-based, mouse; conditions: splenocytes stimulated with LPS and IFN-γ 24 hr; stimulated control 45.3±9.1; p=0.003
Method: When splenocytes were activated with LPS (100 μg/ml) and IFN-γ 100U/ml) for 24 hr the mean (±SEM) IL-12 p40 secretion was 45.3±9.1 pg/ml.

[9] = tested on: IL-6 mRNA; assay: IL-6 mRNA in MRL/lpr splenocytes; format: cell-based, mouse; conditions: splenocytes from younger MRL/lpr mice pretreated 18 hr, stimulated 6 or 18 hr
Method: (§2) In determining whether TSA or SAHA down-regulate IL-6 mRNA content, splenocytes from 24-wk MRL/lpr mice were treated with increasing concentrations of TSA for 18 hr. […] TSA decreased IL-6 transcript at a concentration of 100 ng/ml and exerted maximal inhibition at 300 ng/ml. To address whether TSA and SAHA down-regulate LPS- and IFN-γ induced IL-6 transcript levels, splenocytes from younger MRL/lpr mice were treated in the absence or presence of TSA or SAHA for 18 hr before LPS and IFN-γ stimulation for 6 or 18 hr. […] Next, the effect of TSA and SAHA on IL-6 protein secretion in stimulated splenocytes was measured (FIG. 10D). When splenocytes were cultured with LPS and IFN-γ for 72 hr, there was a mean (±SEM) 34.4±7.6 pg/ml of IL-6 protein secretion.

[10] = tested on: IL-6 protein; assay: IL-6 protein secretion by MRL/lpr splenocytes; format: cell-based, mouse; conditions: splenocytes with LPS and IFN-γ 72 hr; stimulated control 34.4±7.6 pg/ml; p=0.002
Method: as §2

[11] = tested on: IL-10 mRNA; assay: IL-10 mRNA in MRL/lpr splenocytes; format: cell-based, mouse; conditions: splenocytes from 10-wk old MRL/lpr mice pretreated 18 hr, stimulated 6 or 18 hr
Method: In investigating whether TSA down-regulates IL-10 mRNA, MRL/lpr splenocytes were treated with increasing concentrations of TSA. The heightened, constitutive expression of IL-10 mRNA confirms previous findings (FIGS. 11A & 11B, lane 1). […] To address whether TSA and SAHA down-regulate LPS- and IFN-γ induced IL-10 transcript, splenocytes from 10-wk old MRL/lpr mice were treated in the absence or presence of TSA or SAHA for 18 hr before LPS and IFN-γ stimulation for 6 or 18 hr.

[12] = tested on: IL-10 protein; assay: IL-10 protein secretion by MRL/lpr splenocytes; format: cell-based, mouse; conditions: MRL/lpr splenocytes stimulated by LPS, Con A, or LPS+IFN-γ, 72 hr
Excerpt: To determine the effect of TSA and SAHA on IL-10 protein secretion, MRL/lpr splenocytes were stimulated with Con A, LPS, or LPS+IFN-γ for 72 hr in the absence or presence of TSA or SAHA. As shown in the FIG. 11D, splenocytes stimulated with Con A, LPS, or LPS+IFN-γ secreted a mean (±SEM) of 31.8±4.5, 32.3±1.9, and 34.8±4.9 pg/ml, respectively, of IL-10 protein.

[13] = tested on: acetylated H3 and H4 histones; assay: Immunoblot of acetylated H3 and H4 histones in MRL/lpr splenocytes; format: cell-based, mouse; conditions: 18 hr exposure
Excerpt: One mechanism by which HDIs suppress transcription of cytokine genes in MRL/lpr splenocytes may be by increasing accumulation of acetylated histones which may result in chromatin remodeling. The accumulation of acetylated histones H3 and H4 in HDI-treated splenocytes was quantified to test this hypothesis. FIG. 12 is an immunoblot analysis of the acetylation levels of H3 and H4 histones.

[14] = tested on: iNOS mRNA; assay: iNOS mRNA induction in MRL/lpr splenocytes; format: cell-based, mouse; conditions: splenocytes from 10 wk old mice, LPS and IFN-γ 24 hr
Excerpt: Excessive production of nitric oxide (NO) is crucial to the initiation and maintenance of glomerulonephritis in MRL/lpr mice. Pharmacologic inhibition of NO synthesis in MRL/lpr mice abrogates disease progression. In examining whether HDIs could suppress inducible nitric oxide synthetase (iNOS), splenocytes from 10 wk old mice were stimulated in the presence or absence of TSA or SAHA with LPS and IFN-γ for 24 hr. […] To determine whether HDIs could suppress nitric oxide secretion by mesangial cells, mesangial cells were stimulated with LPS ([…]) in the presence of vehicle or TSA for 24 hr. The supernatant from the cell culture was assayed for nitric oxide.

## CCOC(=O)C(CCCCCC(=O)N(C)C)(CCCCCC(=O)N(C)C)C(=O)OCC [EMBA, Diethyl bix(pentamethylene-N,N-dimethylcarboxamide) malonate]
[1]
  HDAC inhibition: not effective as HDAC Inhibitors

## CC(=O)NCCCCCCNC(C)=O [HBMA, Hexamethylene bisacetamide]
[1]
  HDAC inhibition: not effective as HDAC Inhibitors

## O=C(CCCCCCC(=O)Nc1ccccc1)NO [SAHA, Suberoylanilide Hydroxamic Acid]
[2]
  increase in TGF-β1 transcript: eight-fold
[3]
  rise in the synthesis of TGF-β1 protein: 30%
[4]
  accumulation of acetylated H3 and H4 histones: induced the accumulation
[5]; MRL/lpr splenocytes, data not shown
  optimal dose in dose titration experiments: 10 µM
[5]; splenocytes from 10-wk old mice preincubated 18 hr, Con A 10 μg/ml 18 hr, vs vehicle
  Con A-induced up-regulation of IFN-γ transcript: markedly reduced
[6]
  IFN-γ protein secretion: did not secrete detectable levels
[7]
  LPS and IFN-γ induced IL-12 p35 and p40 transcripts: undetectable
[8]
  IL-12 p40 secretion (mean±SEM): 9.1 ± 1.9 pg/mL
[9]
  LPS- and IFN-γ induced IL-6 mRNA: no detectable IL-6 mRNA
[10]
  IL-6 protein secretion: no detectable IL-6 protein secretion
[11]
  LPS- and IFN-γ induced IL-10 mRNA: no detectable IL-10 mRNA
[12]
  IL-10 protein secretion: no detectable IL-10 secretion
[13]
  accumulation of acetylated H3 and H4 histones: marked increase
[14]
  iNOS mRNA induction: able to suppress iNOS mRNA induction

## mono-MTM-depudecin
[1]
  HDAC inhibition: do not inhibit HDAC

Reference: US7271198B2, “Method of treating autoimmune diseases” (Wake Forest University, priority 2000, dated 2007)
